# Measurements: ChEMBL document CHEMBL5625200 (Eur J Med Chem, 2023)
# Biological target: T1, Endothelin-1 receptor (Homo sapiens, UniProt P25101)
# T1 sequence (P25101 whole entry): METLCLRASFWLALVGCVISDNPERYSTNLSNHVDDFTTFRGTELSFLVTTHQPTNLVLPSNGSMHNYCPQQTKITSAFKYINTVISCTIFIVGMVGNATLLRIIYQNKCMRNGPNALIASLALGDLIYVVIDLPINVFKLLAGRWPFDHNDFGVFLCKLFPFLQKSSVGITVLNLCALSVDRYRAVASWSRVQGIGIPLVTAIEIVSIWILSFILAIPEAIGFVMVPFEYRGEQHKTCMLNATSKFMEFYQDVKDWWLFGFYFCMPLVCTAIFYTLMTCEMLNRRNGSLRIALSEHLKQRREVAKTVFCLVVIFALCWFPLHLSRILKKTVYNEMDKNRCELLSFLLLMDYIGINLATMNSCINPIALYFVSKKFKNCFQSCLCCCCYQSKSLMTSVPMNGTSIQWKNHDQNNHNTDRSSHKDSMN
# Assay: Antagonist activity against human ET-1 by ELISA analysis
# Assay type: functional
row,IC50 [nM],SMILES
1,2.19,COc1ccccc1Oc1c(NS(C)(=O)=O)nc(-c2ncccn2)nc1OCC1CCCC1
2,3.78,C=CCCOc1nc(-c2ncccn2)nc(NS(=O)(=O)c2ccc(C)cc2)c1Oc1ccccc1OC
3,1.39,COc1ccccc1Oc1c(NS(=O)(=O)c2ccc(C)cc2)nc(-c2ncccn2)nc1OCCC(C)C
4,1.24,C=CCCOc1nc(-c2ncccn2)nc(NS(=O)(=O)c2ccc(C(C)(C)C)cc2)c1Oc1ccccc1OC
5,3.38,COc1ccccc1Oc1c(NS(=O)(=O)c2ccccc2)nc(-c2ncccn2)nc1OCC1CCCN(C)C1 (stereo not given)
6,3.78,C=CCCOc1nc(-c2ncccn2)nc(NS(=O)(=O)c2ccccc2)c1Oc1ccccc1OC
7,4.78,COc1ccccc1Oc1c(NS(=O)(=O)c2ccc(C(C)(C)C)cc2)nc(-c2ncccn2)nc1OCCC(C)C
8,0.88,COc1ccccc1Oc1c(NS(=O)(=O)c2ccccc2)nc(-c2ncccn2)nc1OCC(F)F
9,1.15,COc1ccccc1Oc1c(NS(=O)(=O)c2ccc(C(C)(C)C)cc2)nc(-c2ncccn2)nc1OCC1CCCC1
10,1.22,COc1ccccc1Oc1c(NS(=O)(=O)c2ccc(C(C)(C)C)cc2)nc(-c2ncccn2)nc1OCC1CC1
11,1.46,COc1ccccc1Oc1c(NS(=O)(=O)c2ccc(C(C)(C)C)cc2)nc(-c2ncccn2)nc1OCC1CCCN1C (stereo not given)
12,2.46,COc1ccccc1Oc1c(NS(=O)(=O)c2ccc(C)cc2)nc(-c2ncccn2)nc1OCC1CCCN(C)C1 (stereo not given)
13,2.21,COc1ccccc1Oc1c(NS(C)(=O)=O)nc(-c2ncccn2)nc1OCC1CCCCN1C (stereo not given)
14,3.92,CC/C=C/CCOc1nc(-c2ncccn2)nc(NS(=O)(=O)c2ccc(C)cc2)c1Oc1ccccc1OC
15,1.73,COc1ccccc1Oc1c(NS(=O)(=O)c2ccccc2)nc(-c2ncccn2)nc1OCCC(C)C
16,4.76,COc1ccccc1Oc1c(NS(=O)(=O)c2ccc(C)cc2)nc(-c2ncccn2)nc1OCC(F)F
17,3.22,COc1ccccc1Oc1c(NS(=O)(=O)c2ccc(C)cc2)nc(-c2ncccn2)nc1OCC1CCC1
18,1.91,COc1ccccc1Oc1c(NS(=O)(=O)c2ccccc2)nc(-c2ncccn2)nc1OCC1CCCCN1C (stereo not given)
19,2.78,COc1ccccc1Oc1c(NS(=O)(=O)c2ccccc2)nc(-c2ncccn2)nc1OCC1CCCC1
20,2.59,COc1ccccc1Oc1c(NS(=O)(=O)c2ccc(C(C)(C)C)cc2)nc(-c2ncccn2)nc1OCC1CCCCN1C (stereo not given)

row,IC50 [nM],SMILES
1,2.01,COc1ccccc1Oc1c(NS(C)(=O)=O)nc(-c2ncccn2)nc1OCC1CCCN(C)C1 (stereo not given)
2,0.77,COc1ccccc1Oc1c(NS(=O)(=O)c2ccc(C(C)(C)C)cc2)nc(-c2ncccn2)nc1OCC(F)F
3,2.41,C=CCCOc1nc(-c2ncccn2)nc(NS(C)(=O)=O)c1Oc1ccccc1OC
4,1.69,COc1ccccc1Oc1c(NS(C)(=O)=O)nc(-c2ncccn2)nc1OCC1CCC1
5,1.21,COc1ccccc1Oc1c(NS(=O)(=O)c2ccc(C)cc2)nc(-c2ncccn2)nc1OCC1CC1
6,1.84,COc1ccccc1Oc1c(NS(=O)(=O)c2ccccc2)nc(-c2ncccn2)nc1OCC1CCC1
7,2.38,COc1ccccc1Oc1c(NS(C)(=O)=O)nc(-c2ncccn2)nc1OCC1CC1
8,2.99,CC#CCOc1nc(-c2ncccn2)nc(NS(=O)(=O)c2ccc(C)cc2)c1Oc1ccccc1OC
9,1.05,COc1ccccc1Oc1c(NS(=O)(=O)c2ccc(C(C)(C)C)cc2)nc(-c2ncccn2)nc1OCC1CCC1
10,1.62,COc1ccccc1Oc1c(NS(=O)(=O)c2ccc(C)cc2)nc(-c2ncccn2)nc1OCC1CCCC1
11,2.33,COc1ccccc1Oc1c(NS(C)(=O)=O)nc(-c2ncccn2)nc1OCC1CCCN1C (stereo not given)
12,3.53,COc1ccccc1Oc1c(NS(=O)(=O)c2ccc(C)cc2)nc(-c2ncccn2)nc1OCC1CCCN1C (stereo not given)
13,2.44,COc1ccccc1Oc1c(NS(=O)(=O)c2ccccc2)nc(-c2ncccn2)nc1OCC1CC1
14,0.47,COc1ccccc1Oc1c(NS(C)(=O)=O)nc(-c2ncccn2)nc1OCC(F)F
15,3.99,CC/C=C/CCOc1nc(-c2ncccn2)nc(NS(=O)(=O)c2ccc(C(C)(C)C)cc2)c1Oc1ccccc1OC
16,0.97,CC/C=C/CCOc1nc(-c2ncccn2)nc(NS(=O)(=O)c2ccccc2)c1Oc1ccccc1OC
17,1.14,COc1ccccc1Oc1c(NS(=O)(=O)c2ccc(C)cc2)nc(-c2ncccn2)nc1OCC1CCCCN1C (stereo not given)
18,2.13,CC#CCOc1nc(-c2ncccn2)nc(NS(C)(=O)=O)c1Oc1ccccc1OC
19,4.33,CC#CCOc1nc(-c2ncccn2)nc(NS(=O)(=O)c2ccccc2)c1Oc1ccccc1OC
20,1.43,COc1ccccc1Oc1c(NS(=O)(=O)c2ccc(C(C)(C)C)cc2)nc(-c2ncccn2)nc1OCC1CCCN(C)C1 (stereo not given)
